Reference: ChEMBL document CHEMBL6078649, “Discovery of Chalcone Derivatives as Bifunctional Molecules with Anti-SARS-CoV-2 and Anti-inflammatory Activities” (J Nat Prod, 2024)
Active and inactive are the calls of the source. The rule behind the calls is not given here.

What was measured:
[1] = target: Procathepsin L (Homo sapiens) (UniProt P07711); assay: Inhibition of CTSL (unknown origin) using Z-Phe-ArgAMC as substrate at 10 uM preincubated for 30 mins followed by substrate addition by fluorescence based analysis
Procathepsin L (Homo sapiens), sequence (P07711 114-333 limits assumed): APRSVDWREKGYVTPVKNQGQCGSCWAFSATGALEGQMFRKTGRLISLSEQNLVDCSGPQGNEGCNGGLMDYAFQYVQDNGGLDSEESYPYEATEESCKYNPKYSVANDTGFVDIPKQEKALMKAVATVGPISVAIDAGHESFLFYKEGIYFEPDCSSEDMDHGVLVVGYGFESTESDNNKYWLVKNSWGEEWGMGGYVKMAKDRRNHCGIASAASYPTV

[2] = tested on: RAW264.7; assay: Anti-inflammatory activity against mouse RAW264.7 cells assessed as inhibition of LPS-induced NO production at 1 uM preincubated for 1 hr followed by LPS treatment measured after 24 hrs relative to control; assay type: functional; settings: time 25 hrs
[3] = target: Transmembrane protease serine 2 (Homo sapiens) (UniProt O15393); assay: Inhibition of TMPRSS2 (unknown origin) using Boc-GIn-Ala-Arg-AMC as substrate at 10 uM preincubated for 60 mins followed by substrate addition by fluorescence based assay
Transmembrane protease serine 2 (Homo sapiens), sequence (O15393 1-255 limits assumed): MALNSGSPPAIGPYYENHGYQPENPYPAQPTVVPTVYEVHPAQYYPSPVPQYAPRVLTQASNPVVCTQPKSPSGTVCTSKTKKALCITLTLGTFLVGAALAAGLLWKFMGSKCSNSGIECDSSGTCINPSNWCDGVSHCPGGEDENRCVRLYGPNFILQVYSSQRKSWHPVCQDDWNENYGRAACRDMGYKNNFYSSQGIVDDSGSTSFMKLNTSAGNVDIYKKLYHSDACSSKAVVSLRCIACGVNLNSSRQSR
Transmembrane protease serine 2 (Homo sapiens), sequence (O15393 256-492 limits assumed): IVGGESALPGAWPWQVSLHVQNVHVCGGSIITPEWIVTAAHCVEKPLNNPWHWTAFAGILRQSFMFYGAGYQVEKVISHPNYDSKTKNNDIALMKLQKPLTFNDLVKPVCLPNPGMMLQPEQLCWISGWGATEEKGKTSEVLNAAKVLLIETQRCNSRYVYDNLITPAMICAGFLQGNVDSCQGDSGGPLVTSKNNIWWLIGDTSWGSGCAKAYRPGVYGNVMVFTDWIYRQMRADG

[4] = target: Cathepsin B (Homo sapiens) (UniProt P07858); assay: Inhibition of CTSB (unknown origin) using Z-Phe-ArgAMC as substrate at 10 uM preincubated for 30 mins followed by substrate addition by fluorescence based analysis
[5] = Cytotoxicity against mouse RAW264.7 cells assessed as cell viability at 10 uM incubated for 24 hrs by CCK8 assay relative to control; assay type: toxicity, cell-based; settings: read-out: Activity
[6] = Cytotoxicity against mouse RAW264.7 cells assessed as cell viability at 50 uM incubated for 24 hrs by CCK8 assay relative to control; assay type: toxicity, cell-based; settings: read-out: Activity
[7] = Cytotoxicity against human Huh-7 cells harboring viral replicon/EGFP/Neo genes assessed as cell viability at 5 uM incubated for 24 hrs by Cell Titer Glo assay relative to control; assay type: toxicity, cell-based; settings: read-out: Activity
[8] = target: Replicase polyprotein 1ab (Severe acute respiratory syndrome coronavirus 2) (UniProt P0DTD1); assay: Inhibition of SARS-CoV-2 3CLPro using DabcylKNSTLQSGLRK-Edans as substrate at 50 uM preincubated for 30 mins followed by substrate addition measured after 20 mins by FRET assay relative to control; settings: time 50.0 min
[9] = target: Replicase polyprotein 1ab (Severe acute respiratory syndrome coronavirus 2) (UniProt P0DTD1); assay: Covalent binding affinity to SARS-CoV-2 3CLPro at 90 uM by MS analysis
[10] = target: T1, Replicase polyprotein 1ab (Severe acute respiratory syndrome coronavirus 2, UniProt P0DTD1); assay: Inhibition of SARS-CoV-2 3CLPro using DabcylKNSTLQSGLRK-Edans as substrate measured after 3 mins by FRET assay
[11] = target: T1, Replicase polyprotein 1ab; assay: Inhibition of SARS-CoV-2 3CLPro using DabcylKNSTLQSGLRK-Edans as substrate measured after 60 mins by FRET assay
[12] = Cytotoxicity against human Huh-7 cells harboring viral replicon/EGFP/Neo genes assessed as cell viability at 50 uM incubated for 24 hrs by Cell Titer Glo assay relative to control; assay type: toxicity, cell-based; settings: read-out: Activity
[13] = Cytotoxicity against mouse RAW264.7 cells assessed as cell viability at 1 uM incubated for 24 hrs by CCK8 assay relative to control; assay type: toxicity, cell-based; settings: read-out: Activity
[14] = target: Replicase polyprotein 1ab (Severe acute respiratory syndrome coronavirus 2) (UniProt P0DTD1); assay: Inhibition of SARS-CoV-2 3CLPro using DabcylKNSTLQSGLRK-Edans as substrate at 5 uM preincubated for 30 mins followed by substrate addition measured after 20 mins by FRET assay relative to control; settings: time 50.0 min
[15] = tested on: RAW264.7; assay: Anti-inflammatory activity against mouse RAW264.7 cells assessed as inhibition of LPS-induced NO production at 10 uM preincubated for 1 hr followed by LPS treatment measured after 24 hrs relative to control; assay type: functional; settings: time 25 hrs
[16] = Cytotoxicity against human Huh-7 cells harboring viral replicon/EGFP/Neo genes assessed as cell viability incubated for 24 hrs by Cell Titer Glo assay; assay type: toxicity, cell-based
[17] = target: T2, Chymotrypsin-C (Homo sapiens) (UniProt Q99895); assay: Inhibition of human CTRC using succinyl-Ala-Ala-Pro-Phe-p-nitroanilide as substrate at 10 uM preincubated for 30 mins followed by trypsin treatment for 1 hr and subsequent addition of substrate by absorbance based assay
T2 sequence (whole entry): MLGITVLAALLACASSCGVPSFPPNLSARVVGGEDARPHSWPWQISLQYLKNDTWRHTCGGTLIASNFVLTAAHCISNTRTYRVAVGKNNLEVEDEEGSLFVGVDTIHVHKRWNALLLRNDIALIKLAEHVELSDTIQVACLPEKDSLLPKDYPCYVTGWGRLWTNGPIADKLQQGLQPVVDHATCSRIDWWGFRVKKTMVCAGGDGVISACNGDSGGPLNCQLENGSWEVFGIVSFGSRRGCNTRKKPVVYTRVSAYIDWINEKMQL

[18] = target: T1, Replicase polyprotein 1ab
[19] = tested on: 143B; assay: Inhibition of cell proliferation of human 143B cells at 10 uM; assay type: functional, cell-based
[20] = target: Replicase polyprotein 1ab (Severe acute respiratory syndrome coronavirus 2) (UniProt P0DTD1); assay: (§1) Mixed inhibition of SARS-CoV-2 3CLPro using DabcylKNSTLQSGLRK-Edans as substrate by FRET assay
[21] = target: T1, Replicase polyprotein 1ab; assay: as §1
[22] = tested on: KHOS/NP; assay: Inhibition of cell proliferation of human KHOS/NP cells at 10 uM; assay type: functional, cell-based
[23] = tested on: MGC-803; assay: Inhibition of cell proliferation of human MGC-803 cells at 10 uM; assay type: functional, cell-based
[24] = tested on: SJSA-1; assay: Inhibition of cell proliferation of human SJSA-1 cells at 10 uM; assay type: functional, cell-based
[25] = tested on: GES1; assay: Inhibition of cell proliferation of human GES1 cells at 10 uM; assay type: functional, cell-based
[26] = tested on: HOS-TE85; assay: Inhibition of cell proliferation of human MNNG/HOS cells at 10 uM; assay type: functional, cell-based

Structure (SMILES)	inhibition [1]	inhibition at 1 µM [2]	inhibition [3]	inhibition [4]	viability at 24 h, 10 µM [5]	viability at 24 h, 50 µM [6]	viability at 24 h, 5 µM [7]	inhibition [8]	Activity [9]	IC50 [10]	IC50 [11]	viability at 24 h, 50 µM [12]	viability at 24 h, 1 µM [13]	inhibition [14]	inhibition at 10 µM [15]	CC50 at 24 h [16]	inhibition [17]	IC50 [18]	other results
O=C(/C=C/c1cc(O)c(O)c(O)c1)c1ccc(F)cc1	inactive	4.2%	inactive	inactive	109%	100%	95.2%	0.5%	Active	461 nM	93.4 nM	63.4%	116%	2.5%	68.6%	> 50000 nM	Active	261 nM	Ki [18]: 800 nM
O=C(/C=C/c1c(Cl)c(O)c(O)c(O)c1Cl)c1ccc(F)cc1	inactive	29.1%	Active	inactive	48.6%	114%	104%	-0.1%	inactive	211 nM	110 nM	50%	93.7%	0.8%	81.1%	41200 nM	Active	83.2 nM	inhibition [19]: inactive; inhibition [20]: Dose-dependent-effect; The Result Suggests That Compound May Bind To Both Enzymatic Active Site And Allosteric Sites; Ki [21]: 200 nM; inhibition [22]: inactive; inhibition [23]: inactive; inhibition [24]: inactive; inhibition [25]: inactive; inhibition [26]: inactive
